Assay results taken from patent US9255080B2, “Quinazolinedione derivatives as PARP inhibitors” (Janssen Pharmaceutica NV, priority 2004, dated 2016).
pIC50: −log10 of the molar value.

target: T1, TANK-2 enzyme (Homo sapiens, UniProt Q9H2K2); experiment: In vitro scintillation proximity assay (SPA) for TANK-2 inhibitory activity; format: biochemical; settings: not given
T1 construct: made in house
T1 sequence (Q9H2K2 1-1166): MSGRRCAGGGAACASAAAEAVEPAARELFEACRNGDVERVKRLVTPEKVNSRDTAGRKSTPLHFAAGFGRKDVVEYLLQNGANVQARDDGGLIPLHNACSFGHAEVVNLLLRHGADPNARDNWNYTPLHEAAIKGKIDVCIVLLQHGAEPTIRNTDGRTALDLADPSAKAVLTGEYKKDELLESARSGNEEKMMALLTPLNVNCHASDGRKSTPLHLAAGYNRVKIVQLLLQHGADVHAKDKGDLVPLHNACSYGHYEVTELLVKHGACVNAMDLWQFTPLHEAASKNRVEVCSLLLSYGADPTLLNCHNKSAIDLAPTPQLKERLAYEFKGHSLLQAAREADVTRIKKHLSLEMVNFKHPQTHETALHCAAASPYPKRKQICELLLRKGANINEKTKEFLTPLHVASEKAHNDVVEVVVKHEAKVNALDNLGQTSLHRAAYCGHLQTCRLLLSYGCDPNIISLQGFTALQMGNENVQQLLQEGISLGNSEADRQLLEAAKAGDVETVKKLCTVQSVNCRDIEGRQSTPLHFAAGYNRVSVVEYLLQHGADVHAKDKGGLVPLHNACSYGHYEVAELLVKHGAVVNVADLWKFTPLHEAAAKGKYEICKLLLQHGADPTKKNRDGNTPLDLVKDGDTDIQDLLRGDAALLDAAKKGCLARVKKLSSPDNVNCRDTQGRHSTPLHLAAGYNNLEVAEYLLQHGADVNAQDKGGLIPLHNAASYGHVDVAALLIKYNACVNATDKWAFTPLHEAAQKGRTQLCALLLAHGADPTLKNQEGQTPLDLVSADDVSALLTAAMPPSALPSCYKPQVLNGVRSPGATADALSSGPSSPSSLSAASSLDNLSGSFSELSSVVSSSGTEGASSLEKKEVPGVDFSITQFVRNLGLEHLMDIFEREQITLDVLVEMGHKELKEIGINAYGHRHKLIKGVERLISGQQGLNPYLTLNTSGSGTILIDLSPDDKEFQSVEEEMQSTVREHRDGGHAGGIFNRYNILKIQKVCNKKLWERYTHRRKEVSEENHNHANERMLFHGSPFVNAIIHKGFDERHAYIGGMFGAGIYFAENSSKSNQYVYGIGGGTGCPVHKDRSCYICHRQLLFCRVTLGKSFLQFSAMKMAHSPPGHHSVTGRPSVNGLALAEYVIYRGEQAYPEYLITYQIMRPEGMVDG
Method: In Vitro Scintillation Proximity Assay (SPA) for TANK-2 Inhibitory Activity
Compounds of the present invention were tested in an in vitro assay based on SPA technology with Ni Flash plates (96 or 384 well).
In principle, the assay relies upon SPA technology for the detection of auto-poly(ADP-ribosyl)ation of TANK-2 protein using [^3H]-nicotinamide adenine dinucleotide ([^3H]-NAD^+) as ADP-ribosyl donor.
A stock solution of [^3H]-NAD^+/NAD was made by adding 64.6 μl of [^3H]-NAD^+ (0.1 mCi/ml, supplier: Perkin Elmer) and 46.7 μl NAD-stock (10.7 mM, stored at −20° C., supplier Roche) to 1888.7 μl assay buffer (60 mM Tris/HCl, pH 7.4; 0.9 mM DTT; 6 mM MgCl2). The TANK-2 enzyme was produced as described in EP1238063. 60 μl of assay buffer, together with 1 μl of compound in DMSO, 20 μl of [^3H]-NAD^+/NAD and 20 μl of TANK-2 enzyme (final concentration 6 μg/ml) was added per well into a 96-well Ni-coated flash plate (Perkin Elmer). After incubation of the mixture for 120 min. at room temperature, the reaction was terminated by adding 60 μl of stopsolution (42.6 mg NAD in 6 ml H2O). The plates were covered with a plate sealer and placed in a TopCountNXT™ (Packard) for scintillation counting. Values were expressed as counts per minute (cpm). For each experiment, controls (containing TANK-2 enzyme and DMSO without compound), a blank incubation (containing DMSO but no TANK-2 enzyme or compound) and samples (containing TANK-2 enzyme and compound dissolved in DMSO) were run in parallel. All compounds tested were dissolved and eventually further diluted in DMSO. In first instance, compounds were tested at a concentration of 10^−5M. […] In each test, the blank value was subtracted from both the control and the sample values. The control sample represented maximal TANK-2 enzyme activity. For each sample, the amount of cpm was expressed as a percentage of the mean cpm value of the controls. When appropriate, IC50-values (concentration of the drug, needed to reduce the TANK-2 enzyme activity to 50% of the control) were computed using linear interpolation between the experimental points just above and below the 50% level. Herein the effects of test compounds are expressed as pIC50 (the negative log value of the IC50-value). As reference compounds, 3-aminobenzamide and 4-amino-1,8-naphthalimide were included to validate the SPA assay. Herein the assay was described using 96-well plates. In the assay using 384-well plates the same final concentrations were used and volumes were adapted.

SMILES	pIC50
O=c1[nH]c(=O)n(CCCN2CCC(c3c[nH]c4ccccc34)CC2)c2ccccc12 [Compound 3]	< 5.00

same assay, conditions: auto-poly(ADP-ribosyl)ation, [3H]-NAD+; 96-well results if available, otherwise 384-well; read-out: in vitro SPA assay TANK-2 pIC50 (converted)

IC50	SMILES
> 10 µM	O=c1[nH]c(=O)n(C2CCN(CC(O)C3CCc4ccccc4O3)CC2)c2ccccc12 (stereo in doubt) [Compound 9, 1-[1-[(2S)-2-[(2R)-3,4-dihydro-2H-1-benzopyran-2-yl]-2-hydroxyethyl]-4-piperidinyl]-2,4(1H,3H)-quinazolinedione]
> 10 µM	O=C(CCCN1CCC(n2c(=O)[nH]c(=O)c3ccccc32)CC1)c1ccc(F)cc1 [Compound 2]
7.57 µM	O=c1[nH]c(=O)n(C2CCN(CCCn3c(=O)[nH]c4ccccc43)CC2)c2ccccc12 [Compound 5]
7.19 µM	O=C(c1ccc(F)cc1)C1CCN(CCn2c(=O)[nH]c(=O)c3ccccc32)CC1 [Compound 10, 1-[2-[4-(4-fluorobenzoyl)-1-piperidinyl]ethyl]-2,4-(1H,3H)-quinazolinedione]
> 10 µM	O=C(c1ccc(F)cc1)C1CCN(CCCn2c(=O)[nH]c(=O)c3ccccc32)CC1 [Compound 11, 1-[3-[4-(4-fluorobenzoyl)-1-piperidinyl]propyl]-2,4-(1H,3H)-quinazolinedione]

SMILES	IC50
O=c1[nH]c(=O)n(C2CCNCC2)c2ccccc12 [Compound 1]	> 10 µM
O=c1[nH]c(=O)n(CCN2CCC(O)(c3ccc(Cl)cc3)CC2)c2ccccc12 [Compound 6]	1.38 µM
O=c1[nH]c(=O)n(CCCN2CCC(O)(c3ccc(Cl)cc3)CC2)c2ccccc12 [Compound 7]	> 10 µM
